Read-outs that look alike come from different tables or passages of the source. Marks after values point to notes of the source that are not given here.
How the values were obtained:
[1] = Pharmacokinetics and metabolite formation in rats; type: in vivo, rat; details: rat, in vivo; for AUC(0-t) / half-life: both sexes, po, 12.5 mg/kg; for AUC0-12 M2, percent change relative to Ulixertinib / AUC0-12 M3, percent change relative to Ulixertinib / AUC0-12 M6, percent change relative to Ulixertinib / AUC0-12 Parent, percent change relative to Ulixertinib / Half-life, percent change relative to Ulixertinib / longer mean half-life than ulixertinib: both
Method: Ulixertinib, Formulas 18A, 19A, and 21A were dosed twice daily (12 hours apart, ±30 minutes) for five consecutive days (10 doses/animal) to rats via oral gavage (PO). Each compound was administered at a dose of 12.5 mg/kg to 6 rats (3 male/3 female, N=6 rats/compound). Each compound was formulated in 1% (w/v) carboxymethylcellulose (CMC) in water at a concentration of 1.25 mg/mL. Following the second (p.m.) dose on Day 5, blood samples were collected from each rat at approximately 0.5, 1, 2, 4, 6, 8, and 12 hours post-dose. Blood samples were centrifuged to obtain plasma. Plasma samples were analyzed for concentrations of the dosed compounds and selected metabolites using an established LC-MS/MS method. The lower limit of quantitation of each compound was 1.00 ng/mL. The rat half-life values (determined by non-compartmental analysis using WinNonlin software) for each compound are shown in Table 7, and the areas under curve from time 0 to hour 12 (AUC0-12), calculated using the linear trapezoidal rule, for each dosed compound and selected metabolites are presented in Table 8.

A375 cells = assay: A375 proliferation assay (Cell TiterGlo); type: cell-based; details: Homo sapiens, A-375, 72 hours
Method: Mechanism of Action (MOA) Cell Assay—A375 Cell Proliferation, pERK/ERK and pRSK/RSK Analysis:
Briefly, A375 cells were plated at 10,000 cells/well in three 96 well plates. Plates were incubated overnight at 37° C. and allowed to recover. Cells were washed with 150 μL of DPBS and 90 μL of fresh media was added to each well. The cells were then treated with a dose response of the selected compounds. Compounds were diluted from stock concentrations (10 mM in DMSO). Serial dilutions were made in DMSO, yielding 8 total different concentrations per compound. At time of compound addition, the control plate was analyzed using Cell TiterGlo to set baseline for proliferation. Compound treated cells were allowed to grow at 37° C./5% CO2 for 72 hours then analyzed using Cell TiterGlo according to kit protocol.

[2] = test system: phospho-ERK1/2 to total ERK1/2 in A375 cells; assay: A375 pERK/ERK dose response study (MSD); type: cell-based; details: Homo sapiens, A-375, ratio of phospho-ERK1/2 to total ERK1/2
Method: A375 pERK/ERK Dose Response Study:
Briefly, A375 cells were plated at 30,000 cells/well in 2×96 well plates, allowed to recover overnight, washed and fed fresh media the next day then treated with a dose response of the selected compounds. Following the determined pretreatment time with the compounds at 37° C./5% CO2, the media was aspirated, and cells lysed with cold, complete MESO Scale Discovery (MSD) lysis buffer. pERK and total ERK1/2 levels were measured using MESO Scale Discover Phospho(Thr202/Tyr204; Thr185/Tyr187)/Total ERK1/2 kits. The protocol and all reagents were provided in the kit. All wells were blocked with 150 μl Blocking Solution for one hour. […] of lysis buffer was added per well and incubated overnight at 4° C. Following the overnight incubation, the wells were washed three times with Tris Wash buffer, then […] of 1× Detection Antibody was added per well and incubated at room temperature for one hour with vigorous shaking. All wells were then washed three times with Tris Wash Buffer before 150 μl of 1× Read Buffer was added per well and the plates read using the MSD Sector Imager. Data were calculated as a ratio of phospho-ERK1/2 to total ERK1/2 to allow for normalization of the samples.

[3] = Half-life determination in human liver microsomes; type: in vitro ADME; details: for half-life at 1 μM: human, NADPH
Method: Human microsomes from a pool of 10 donors was obtained from a commercial source. Microsomes prepared in potassium phosphate buffer were spiked with ulixertinib, Formula 18, Formula 19, and Formula 21 individually in replicates of six at a final concentration of 1 μM. NADPH was used to initiate the experiment; a control of minus NADPH (minus cofactor) was also run in parallel to the human liver microsome stability. After spiking with test article, microsome replicates were placed in a 37° C. incubator with the following time course: 0, 5, 10, 15, 20, 30, 45 and 60 minutes. Samples were extracted with a protein precipitation quench consisting of ice cold acetonitrile containing internal standard (tolbutamide). Samples were analyzed for ulixertinib, Formula 18, Formula 19, and Formula 21. The half-lives of ulixertinib, Formula 18, Formula 19, and Formula 21 were characterized by the […] to determine the elimination rate (ke) and using the formula described below.
[formula] • ke (elimination rate): the slope of ln(percent remaining) vs time (in minutes)

pRSK/RSK in A375 cells = assay: A375 pRSK/RSK dose response study (ELISA); type: cell-based; details: Homo sapiens, A-375, pRSK and total RSK ELISA
Method: A375 pRSK/RSK Dose Response Study
Briefly, A375 cells were plated at 30,000 cells/well in 2×96 well plates, allowed to recover overnight, washed and fed fresh media the next day then treated with a dose response of the selected compounds. Following the determined pretreatment with the compounds at 37° C./5% CO2 the media was aspirated, and cells lysed with cold, complete MSD lysis buffer. pRSK and total RSK were analyzed using CST/PathScan pRSK and total RSK ELISAS according to the respective kit protocols. All samples were analyzed at 90% of remaining sample in pRSK and 10% of remaining sample in total RSK ELISA, which was performed following kit protocols.

[4] = Steady-state exposure of ulixertinib and metabolites in human subjects; type: in vivo; details: for % of total Ulixertinib related exposure: day 15, steady state; for AUC at 15 day: in vivo, day 15, non-isotopically enriched ulixertinib and related metabolites, read-out: Steady-State AUC (Mean ± SD)
Description: (§1) The steady state exposure levels of non-isotopically enriched parent ulixertinib and related metabolites in rat (day 5) and human subjects (day 15) is provided in TABLE 1 below: […]

[5] = Steady-state exposure of ulixertinib and metabolites in rat; type: in vivo; details: for % of total Ulixertinib related exposure: day 5, steady state; for AUC at 5 day: in vivo, day 5, non-isotopically enriched ulixertinib and related metabolites, read-out: Steady-State AUC (Mean ± SD)
Description: as §1

Row | AUC(0-t) [1] [ng·h/mL] | half-life [1] [h] | AUC0-12 M2, percent change relative to Ulixertinib [1] | AUC0-12 M3, percent change relative to Ulixertinib [1] | AUC0-12 M6, percent change relative to Ulixertinib [1] | AUC0-12 Parent, percent change relative to Ulixertinib [1] | Half-life, percent change relative to Ulixertinib [1] | longer mean half-life than ulixertinib [1] [%] | % of total Ulixertinib related exposure [4] [%] | AUC at 15 day [4] [ng·h/mL] | % of total Ulixertinib related exposure [5] [%] | AUC at 5 day [5] [ng·h/mL] | SMILES | further results
1 | 228000 | 4.18 | (−4%^a) | (−75%^a) | (+25%^a) | (+32%^a) | (+14%^a) | 14 | – | – | – | – | Cl.[2H]C([2H])([2H])C([2H])(Nc1cc(-c2c[nH]c(C(=O)N[C@H](CO)c3cccc(Cl)c3)c2)c(Cl)cn1)C([2H])([2H])[2H] [Formula 18A] | –
2 | 199000 | 4 | (−17%^a) | (−84%^a) | (−35%) | (+15%^a) | (+9%^a) | 9 | – | – | – | – | Cl.[2H]C([2H])([2H])C(Nc1cc(-c2c[nH]c(C(=O)N[C@H](CO)c3cccc(Cl)c3)c2)c(Cl)cn1)C([2H])([2H])[2H] [Formula 19A] | –

More lines, now with the values behind:

Row | SMILES | AUC(0-t) [1] [ng·h/mL] | half-life [1] [h] | AUC0-12 M2, percent change relative to Ulixertinib [1] | AUC0-12 M3, percent change relative to Ulixertinib [1] | AUC0-12 M6, percent change relative to Ulixertinib [1] | AUC0-12 Parent, percent change relative to Ulixertinib [1] | Half-life, percent change relative to Ulixertinib [1] | longer mean half-life than ulixertinib [1] [%] | % of total Ulixertinib related exposure [4] [%] | AUC at 15 day [4] [ng·h/mL] | % of total Ulixertinib related exposure [5] [%] | AUC at 5 day [5] [ng·h/mL] | further results
3 | [2H]C(C)(C)Nc1cc(-c2c[nH]c(C(=O)N[C@H](CO)c3cccc(Cl)c3)c2)c(Cl)cn1 [Formula 21, 4-(5-chloro-2-((propan-2-yl-2-d1)amino)pyridin-4-yl)-N-(1-(3-chlorophenyl)-2-hydroxyethyl)-1H-pyrrole-2-carboxamide] | – | – | – | – | – | – | – | – | – | – | – | – | IC50 (A375 cells): 310 nM; IC50 [2]: 64 nM; longer half-life than ulixertinib ([3]; Table 5): 30%; half-life at 1 μM ([3]; Rep 1, read-out: Half-life, t½, Rep 1): 1.01 h; half-life at 1 μM ([3]; Rep 2, read-out: Half-life, t½, Rep 2): 1.26 h; half-life at 1 μM ([3]; Rep 3, read-out: Half-life, t½, Rep 3): 1.07 h; half-life at 1 μM ([3]; Rep 4, read-out: Half-life, t½, Rep 4): 1.02 h; half-life at 1 μM ([3]; Rep 5, read-out: Half-life, t½, Rep 5): 0.992 h; half-life at 1 μM ([3]; Rep 6, read-out: Half-life, t½, Rep 6): 1.01 h; half-life at 1 μM ([3]; six replicates, read-out: Half-life, t½, Mean ± SD): 1.06 ± 0.102 h; Half-life, % change relative to ulixertinib ([3]; mean): (+30%); IC50 (pRSK/RSK in A375 cells): 37 nM
4 | C[C@H](CO)Nc1cc(-c2c[nH]c(C(=O)N[C@H](CO)c3cccc(Cl)c3)c2)c(Cl)cn1 [Formula 34] | – | – | – | – | – | – | – | – | 49.9 | 39400 ± 12000 | 8.1 | 15900 ± 4700 | Formula 34/Ulixertinib steady-state AUC ratio ([4]; day 15): 1.3; Formula 34/Ulixertinib steady-state AUC ratio ([5]; day 5): 0.09
5 | C[C@@H](CO)Nc1cc(-c2c[nH]c(C(=O)N[C@H](CO)c3cccc(Cl)c3)c2)c(Cl)cn1 [Formula 35] | – | – | – | – | – | – | – | – | 4.3 | 3400 ± 2300 | 0.6 | 1200 ± 200 | –
6 | C[C@H](Nc1cc(-c2c[nH]c(C(=O)N[C@H](CO)c3cccc(Cl)c3)c2)c(Cl)cn1)C(=O)O [Formula 37] | – | – | – | – | – | – | – | – | 8.2 | 6500 ± 5500 | 0.2 | 400 ± 200 | –
